Test results: patent US10383909B2, “Use of a plant extract, pharmaceutical compositions and use thereof” (HEBRON FARMACEUTICA PESQUISA, DESENVOLVIMENTO E INOVACAO …, priority 2010, dated 2019)
“And” between values parts separate entries of the source, which are not always exact repeats. Identical values can stand only once.

What was measured:
Format in all cases: in vivo, human
[1] = Intensity of gastritis by histopathological examination before and after treatment (Sydney System)
Description: (§1) Patients included in the sample performed two esophagogastroduodenoscopy tests (EGD) with biopsy and analysis for Helicobacter pylori. The first test was made before the treatment, and the second, after four weeks (28 days) on medication. The protocol for administration of medications included: ingestion of one (1) the tablet based on Aroeira (about 233.60 mg) twice daily for four weeks (28 days), or the ingestion of 20 mg Omeprazole, two tablets twice daily for the same period. Classification with gradations and intensity of gastritis was based on the Sydney System. For data analysis, we used the Epi Info program, v.3.5.1, and Microsoft Excel 2007. Since they are categorical variables, Odds Ratios were evaluated and significant results were verified through a crude chi-squared test or with a Yates correction, when applicable, and alternatively the Fisher Exact Test when indicated. A Z test was also used to compare proportions when the expected frequencies were greater than or equal to 5. Confidence intervals were calculated for 95% confidence, with significant differences smaller than 5%.

[2] = system: Helicobacter pylori; experiment: Analysis for Helicobacter pylori in biopsy after treatment; conditions: after 28 days
Description: as §1, with “period.” for “period. Classification with gradations and intensity of gastritis was based on the Sydney System.”

[3] = Patient questionnaire on gastritis symptoms before and after treatment; conditions: gastritis patients, oral, four weeks (28 days)
From the text: To evaluate the efficacy of hydroalcoholic extract of S. terebinthifolius in the form of a medication, 72 volunteer patients of both genders with diagnosed gastritis were selected. Anthropomorphic characteristics, such as age, weight and height were similar. The criteria for inclusion of patients in the sample were aged between 16 and 80 years (mean age was 40 years), with diagnosis of gastritis confirmed by endoscopy and pathological examination, and consent after clarification for study participation. We excluded patients who were treated with proton pump inhibitors, anti-inflammatory non-steroidal, H-2 receptor blockers and/or antacids during the month preceding the study.
The sample was randomly divided into two groups:
Group I—38 patients who used the medication based on Aroeira (Schinus terebinthifolius Raddi);
Group II—34 patients who used the drug Omeprazole (control group).
The protocol for administration of medications included: ingestion of one (1) the tablet based on Aroeira (about 233.60 mg) twice daily for four weeks (28 days), or the ingestion of 20 mg Omeprazole, two tablets twice daily for the same period.
For data analysis, we used the Epi Info program, v.3.5.1, and Microsoft Excel 2007. Since they are categorical variables, Odds Ratios were evaluated and significant results were verified through a crude chi-squared test or with a Yates correction, when applicable, and alternatively the Fisher Exact Test when indicated. A Z test was also used to compare proportions when the expected frequencies were greater than or equal to 5. Confidence intervals were calculated for 95% confidence, with significant differences smaller than 5%.
The results were obtained through a questionnaire completed by each patient, under the supervision of a specialist.

[4] = Esophagogastroduodenoscopy (EGD) before and after four weeks of treatment: gastritis present or absent; conditions: 2nd EGD after 28 days
From the text: as §1, with “To evaluate the efficacy of hydroalcoholic extract of S. terebinthifolius in the form of a medication, 72 volunteer patients of both genders with diagnosed gastritis were selected. Anthropomorphic characteristics, such as age, weight and height were similar. The criteria for inclusion of patients in the sample were aged between 16 and 80 years (mean age was 40 years), with diagnosis of gastritis confirmed by endoscopy and pathological examination, and consent after clarification for study participation. We excluded patients who were treated with proton pump inhibitors, anti-inflammatory non-steroidal, H-2 receptor blockers and/or antacids during the month preceding the study. Patients” for “Patients”

[5] = intensity before treatment Mild/Discrete
[6] = intensity before treatment Moderate

COc1ccc2[nH]c([S+]([O-])Cc3ncc(C)c(OC)c3C)nc2c1 (stereo not shown) [Omeprazole]
Intensity after treatment Mild/Discrete, % [1, 5]: 54.50% | Intensity after treatment Mild/Discrete, No. of patients [1, 5]: 12 | Intensity after treatment Moderate, % [1, 5]: 45.5% | Intensity after treatment Moderate, N of patients [1, 5]: 10 | Intensity after treatment Mild/Discrete, % (improvement) [1, 6]: 27.30% | Intensity after treatment Moderate, % [1, 6]: 72.70% | Intensity after treatment Moderate, N of patients [1, 6]: 8 | H. pylori Absent after treatment, % (eradication rate) [2]: 9.4% and 9.38% | H. pylori Absent after treatment, N° of patients [2]: 3 | H. pylori Present after treatment, % [2]: 90.63% | H. pylori Present after treatment, N° of patients [2]: 29 | Percentage of improvement in symptoms after treatment: Abdominal discomfort relieved with meals [3]: 85.70% | Percentage of improvement in symptoms after treatment: Frequent epigastric pain [3]: 72.70% | Percentage of improvement in symptoms after treatment: Heartburn [3]: 71.40% | Percentage of improvement in symptoms after treatment: Nausea [3]: 72.20% | Gastritis Absent after treatment, % (disappearance of endoscopic mucosal injury) [4]: 0% | Gastritis Absent after treatment, N° of patients [4]: 0 | Gastritis Present after treatment, % [4]: 100% | Gastritis Present after treatment, N° of patients [4]: 34
